Data published in ChEMBL document CHEMBL3351364 (J Med Chem, 2014).

Assays:
[1] = Oral bioavailability in beagle dog at 10 mg/kg; assay type: ADME, organism-based, Canis lupus familiaris; conditions: in vivo
Dengue virus = test: Antiviral activity against Dengue virus infected in african green monkey Vero-76 cells after 3 days; assay type: functional, organism-based; conditions: Vero 76, 72 h
[2] = Lipophilicity, log P of the compound; assay type: physicochemical; conditions: octanol/water
[3] = Cytotoxicity against human HuH7 cells; assay type: cell-based, Huh-7
[4] = Solubility of the compound in water at pH 2; assay type: physicochemical
[5] = Metabolic stability in dog liver microsomes assessed as residual compound at 1 uM after 60 mins; assay type: ADME, Canis lupus familiaris; conditions: read-out: Stability
Rattus norvegicus [6] = test: (§1) Toxicity in ip dosed Wistar rat; assay type: organism-based; conditions: in vivo
[7] = as §1; assay type: organism-based; conditions: Wistar, in vivo
[8] = Cytotoxicity against Yellow fever virus infected african green monkey Vero 76 cells after 3 days; assay type: cell-based; conditions: chlorocebus sabaeus, Vero 76 cells infected with Yellow fever virus
[9] = Half life in Sprague-Dawley rat at 11.2 mg/kg, po; assay type: ADME, organism-based; parameters: dose 11.2 mg/kg, route oral; conditions: in vivo
Salmonella typhimurium [10] = test: Mutagenicity in Salmonella typhimurium TA1537 assessed as increase in number of colonies by Ames test relative to control; assay type: toxicity, organism-based; conditions: salmonella enterica subsp. enterica serovar typhimurium
Rattus norvegicus [11] = test: (§2) Toxicity in ip dosed female Wistar rat; assay type: organism-based; conditions: in vivo
[12] = as §2; assay type: organism-based; conditions: female, Wistar, in vivo
Mus musculus [13] = test: (§3) Toxicity in po dosed female SHK mouse; assay type: organism-based; conditions: in vivo
[14] = as §3; assay type: organism-based; conditions: female, SHK, in vivo
Hepatitis C virus [15] = test: Antiviral activity against HCV genotype 1b infected in human Huh7 cells after 3 days by cell-based replicon assay in presence of 40% normal human serum; assay type: functional, Hepacivirus hominis; conditions: Huh-7, 72 h
[16] = Solubility of the compound in water at pH 4; assay type: physicochemical
Hepatitis C virus [17] = test: Antiviral activity against HCV genotype 1b infected in human Huh7 cells after 3 days by cell-based replicon assay in presence of 10% fetal bovine serum; assay type: functional, Hepacivirus hominis; conditions: Huh-7, 72 h
West Nile virus = test: Antiviral activity against West Nile virus NY99 infected in african green monkey Vero-76 cells after 3 days; assay type: functional, organism-based; conditions: NY99, Vero 76, 72 h
[18] = Toxicity in ip dosed SHK mouse; assay type: organism-based; conditions: in vivo
Canis familiaris = species: Canis familiaris; test: Toxicity in dog by 6-weeks study; assay type: organism-based, Canis lupus familiaris; conditions: in vivo, 1008 h
Hepatitis C virus [19] = test: Antiviral activity against HCV genotype 2a; assay type: functional, Hepacivirus hominis
Rattus norvegicus [20] = test: (§4) Toxicity in ip dosed male Wistar rat; assay type: organism-based; conditions: in vivo
[21] = as §4; assay type: organism-based; conditions: male, Wistar, in vivo
Rattus norvegicus [22] = species: Rattus norvegicus; test: Toxicity in rat by 12-weeks study; assay type: organism-based; conditions: in vivo, 2016 h
Mus musculus [23] = test: (§5) Toxicity in po dosed male SHK mouse; assay type: organism-based; conditions: in vivo
[24] = as §5; assay type: organism-based; conditions: male, SHK, in vivo
[25] = Solubility of the compound in alcohol; assay type: physicochemical
Cytochrome P450 2C9 = Cytochrome P450 2C9 (Homo sapiens, UniProt P11712); test: Inhibition of human liver CYP2C9; assay type: ADME
Cytochrome P450 1A2 = biological target: T1, Cytochrome P450 1A2 (Homo sapiens, UniProt P05177); test: Inhibition of human liver CYP1A2; assay type: ADME
T1 sequence (P05177 whole entry): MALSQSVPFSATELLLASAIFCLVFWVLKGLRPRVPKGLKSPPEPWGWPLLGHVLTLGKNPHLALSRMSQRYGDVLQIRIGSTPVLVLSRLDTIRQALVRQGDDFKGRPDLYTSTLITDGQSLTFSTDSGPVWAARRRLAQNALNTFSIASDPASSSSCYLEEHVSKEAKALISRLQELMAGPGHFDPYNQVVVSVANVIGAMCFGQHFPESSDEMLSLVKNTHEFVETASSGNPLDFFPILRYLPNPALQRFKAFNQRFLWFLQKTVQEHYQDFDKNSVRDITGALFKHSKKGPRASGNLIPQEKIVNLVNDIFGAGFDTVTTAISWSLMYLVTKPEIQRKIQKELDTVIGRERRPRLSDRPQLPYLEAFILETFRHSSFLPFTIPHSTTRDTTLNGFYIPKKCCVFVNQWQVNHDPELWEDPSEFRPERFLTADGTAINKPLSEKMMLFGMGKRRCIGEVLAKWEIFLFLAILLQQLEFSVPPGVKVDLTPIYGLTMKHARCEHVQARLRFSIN

[26] = Lipophilicity, log D of the compound at pH 7.4; assay type: physicochemical; conditions: buffer
Salmonella typhimurium [27] = test: Mutagenicity in Salmonella typhimurium TA1535 assessed as increase in number of colonies by Ames test relative to control; assay type: toxicity, organism-based; conditions: salmonella enterica subsp. enterica serovar typhimurium
[28] = Therapeutic index, ratio of CC50 for human Huh7 cells to EC50 for HCV genotype 1b infected in human Huh7 cells; assay type: cell-based, Huh-7; conditions: read-out: Ratio CC50/EC50
Rattus norvegicus [29] = species: Rattus norvegicus; test: Toxicity in female rat assessed as adverse effect on reproductive organ; assay type: organism-based; conditions: in vivo
[30] = Cytotoxicity against West Nile virus NY99 infected african green monkey Vero 76 cells after 3 days; assay type: cell-based; conditions: chlorocebus sabaeus, Vero 76 cells infected with West Nile virus NY99
[31] = Solubility of the compound in dimethyl sulfoxide; assay type: physicochemical
Hepatitis C virus [32] = test: Antiviral activity against HCV genotype 1a; assay type: functional, Hepacivirus hominis; conditions: subtype 1a
[33] = Half life in beagle dog at 10 mg/kg, po; assay type: ADME, organism-based, Canis lupus familiaris; parameters: dose 10 mg/kg, route oral; conditions: in vivo
Yellow fever virus = test: Antiviral activity against Yellow fever virus infected in african green monkey Vero-76 cells after 3 days; assay type: functional, organism-based; conditions: Vero 76, 72 h
[34] = Metabolic stability in human liver microsomes assessed as residual compound at 1 uM after 60 mins; assay type: ADME; conditions: read-out: Stability
Hepatitis C virus [35] = test: Antiviral activity against HCV genotype 4a; assay type: functional, Hepacivirus hominis
[36] = biological target: Voltage-gated inwardly rectifying potassium channel KCNH2 (Homo sapiens, UniProt Q12809); test: Binding affinity to human ERG at 3 to 30 uM
Salmonella typhimurium [37] = test: Mutagenicity in Salmonella typhimurium TA98 assessed as increase in number of colonies by Ames test relative to control; assay type: toxicity, organism-based; conditions: salmonella enterica subsp. enterica serovar typhimurium
[38] = Oral bioavailability in Sprague-Dawley rat at 11.2 mg/kg; assay type: ADME, organism-based; conditions: in vivo
Rattus norvegicus [39] = species: Rattus norvegicus; test: Toxicity in male rat assessed as adverse effect on reproductive organ; assay type: organism-based; conditions: in vivo
Cytochrome P450 2D6 = Cytochrome P450 2D6 (Homo sapiens, UniProt P10635); test: Inhibition of human liver CYP2D6; assay type: ADME
[40] = Solubility of the compound in water at pH 7.4; assay type: physicochemical
[41] = Half life in beagle dog at 5 mg/kg, iv as 30 mins infusion; assay type: ADME, organism-based, Canis lupus familiaris; parameters: dose 5 mg/kg, route intravenous; conditions: in vivo
Salmonella typhimurium [42] = test: Mutagenicity in Salmonella typhimurium TA100 assessed as increase in number of colonies by Ames test relative to control; assay type: toxicity, organism-based; conditions: salmonella enterica subsp. enterica serovar typhimurium
[43] = Cytotoxicity against Dengue virus infected african green monkey Vero 76 cells after 3 days; assay type: cell-based; conditions: chlorocebus sabaeus, Vero 76 cells infected with Dengue virus
[44] = Metabolic stability in rat liver microsomes assessed as residual compound at 1 uM after 60 mins; assay type: ADME; conditions: read-out: Stability
Cytochrome P450 2C19 = Cytochrome P450 2C19 (Homo sapiens, UniProt P33261); test: Inhibition of human liver CYP2C19; assay type: ADME
[45] = Half life in Sprague-Dawley rat at 2.8 mg/kg, iv as 30 mins infusion; assay type: ADME, organism-based; parameters: dose 2.8 mg/kg, route intravenous; conditions: in vivo
Cytochrome P450 3A4 = Cytochrome P450 3A4 (Homo sapiens, UniProt P08684); test: Inhibition of human liver CYP3A4; assay type: ADME
Sequence of Cytochrome P450 3A4 (P08684 whole entry): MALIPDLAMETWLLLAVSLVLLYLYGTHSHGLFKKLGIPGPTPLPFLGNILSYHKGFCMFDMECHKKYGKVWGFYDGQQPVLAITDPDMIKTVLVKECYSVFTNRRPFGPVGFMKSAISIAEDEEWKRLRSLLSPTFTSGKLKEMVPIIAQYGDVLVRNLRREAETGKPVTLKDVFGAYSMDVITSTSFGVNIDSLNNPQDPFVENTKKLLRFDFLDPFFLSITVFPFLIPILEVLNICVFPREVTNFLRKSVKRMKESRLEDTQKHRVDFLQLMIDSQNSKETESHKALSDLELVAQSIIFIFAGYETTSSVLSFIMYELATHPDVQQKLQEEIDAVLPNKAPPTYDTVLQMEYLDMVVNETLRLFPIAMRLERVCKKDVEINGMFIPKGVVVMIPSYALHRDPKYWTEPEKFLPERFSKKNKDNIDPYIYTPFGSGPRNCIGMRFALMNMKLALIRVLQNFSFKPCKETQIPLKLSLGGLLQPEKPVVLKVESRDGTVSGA

Sequence of Cytochrome P450 2D6 (P10635 whole entry): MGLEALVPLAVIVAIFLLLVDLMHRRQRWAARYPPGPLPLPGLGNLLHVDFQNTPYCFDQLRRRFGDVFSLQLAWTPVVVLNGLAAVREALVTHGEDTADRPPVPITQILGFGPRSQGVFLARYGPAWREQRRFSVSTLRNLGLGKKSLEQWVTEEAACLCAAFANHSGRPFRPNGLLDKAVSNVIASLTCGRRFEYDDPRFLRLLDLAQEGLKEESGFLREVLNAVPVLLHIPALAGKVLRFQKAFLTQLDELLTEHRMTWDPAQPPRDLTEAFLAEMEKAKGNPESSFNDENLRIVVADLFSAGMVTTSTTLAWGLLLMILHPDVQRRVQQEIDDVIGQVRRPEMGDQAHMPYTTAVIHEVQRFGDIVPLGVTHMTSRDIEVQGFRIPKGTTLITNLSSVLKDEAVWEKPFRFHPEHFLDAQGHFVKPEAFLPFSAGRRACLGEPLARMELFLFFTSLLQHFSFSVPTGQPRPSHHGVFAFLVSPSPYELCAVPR
Sequence of Cytochrome P450 2C19 (P33261 whole entry, the tested form may be a part): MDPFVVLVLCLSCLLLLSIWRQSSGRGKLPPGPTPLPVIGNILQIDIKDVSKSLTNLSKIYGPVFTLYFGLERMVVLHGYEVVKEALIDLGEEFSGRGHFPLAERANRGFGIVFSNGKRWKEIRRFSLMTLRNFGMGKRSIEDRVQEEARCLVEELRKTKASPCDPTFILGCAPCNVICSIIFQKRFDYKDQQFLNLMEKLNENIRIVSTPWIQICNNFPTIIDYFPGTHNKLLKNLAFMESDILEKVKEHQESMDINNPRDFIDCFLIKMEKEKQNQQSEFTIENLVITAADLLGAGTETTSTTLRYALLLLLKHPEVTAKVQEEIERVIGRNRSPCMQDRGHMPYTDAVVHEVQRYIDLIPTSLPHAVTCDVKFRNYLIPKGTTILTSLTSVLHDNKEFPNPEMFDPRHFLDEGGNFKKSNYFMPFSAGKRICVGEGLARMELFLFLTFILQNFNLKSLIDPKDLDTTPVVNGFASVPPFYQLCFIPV
Sequence of Cytochrome P450 2C9 (P11712 whole entry): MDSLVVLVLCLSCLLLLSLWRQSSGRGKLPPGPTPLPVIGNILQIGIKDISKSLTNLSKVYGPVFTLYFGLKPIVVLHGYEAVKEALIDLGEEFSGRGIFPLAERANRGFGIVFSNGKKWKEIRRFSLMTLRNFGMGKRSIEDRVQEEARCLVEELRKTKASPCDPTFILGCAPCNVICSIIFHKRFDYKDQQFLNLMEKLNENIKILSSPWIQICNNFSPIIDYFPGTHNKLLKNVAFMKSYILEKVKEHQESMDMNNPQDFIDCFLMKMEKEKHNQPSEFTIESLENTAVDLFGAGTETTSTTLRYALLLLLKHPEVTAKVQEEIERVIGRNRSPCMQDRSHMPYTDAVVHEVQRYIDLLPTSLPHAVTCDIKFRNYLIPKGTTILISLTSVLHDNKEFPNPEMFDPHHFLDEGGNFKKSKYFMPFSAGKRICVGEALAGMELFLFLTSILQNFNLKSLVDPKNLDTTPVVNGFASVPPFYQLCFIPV
Sequence of Voltage-gated inwardly rectifying potassium channel KCNH2 (Q12809 whole entry): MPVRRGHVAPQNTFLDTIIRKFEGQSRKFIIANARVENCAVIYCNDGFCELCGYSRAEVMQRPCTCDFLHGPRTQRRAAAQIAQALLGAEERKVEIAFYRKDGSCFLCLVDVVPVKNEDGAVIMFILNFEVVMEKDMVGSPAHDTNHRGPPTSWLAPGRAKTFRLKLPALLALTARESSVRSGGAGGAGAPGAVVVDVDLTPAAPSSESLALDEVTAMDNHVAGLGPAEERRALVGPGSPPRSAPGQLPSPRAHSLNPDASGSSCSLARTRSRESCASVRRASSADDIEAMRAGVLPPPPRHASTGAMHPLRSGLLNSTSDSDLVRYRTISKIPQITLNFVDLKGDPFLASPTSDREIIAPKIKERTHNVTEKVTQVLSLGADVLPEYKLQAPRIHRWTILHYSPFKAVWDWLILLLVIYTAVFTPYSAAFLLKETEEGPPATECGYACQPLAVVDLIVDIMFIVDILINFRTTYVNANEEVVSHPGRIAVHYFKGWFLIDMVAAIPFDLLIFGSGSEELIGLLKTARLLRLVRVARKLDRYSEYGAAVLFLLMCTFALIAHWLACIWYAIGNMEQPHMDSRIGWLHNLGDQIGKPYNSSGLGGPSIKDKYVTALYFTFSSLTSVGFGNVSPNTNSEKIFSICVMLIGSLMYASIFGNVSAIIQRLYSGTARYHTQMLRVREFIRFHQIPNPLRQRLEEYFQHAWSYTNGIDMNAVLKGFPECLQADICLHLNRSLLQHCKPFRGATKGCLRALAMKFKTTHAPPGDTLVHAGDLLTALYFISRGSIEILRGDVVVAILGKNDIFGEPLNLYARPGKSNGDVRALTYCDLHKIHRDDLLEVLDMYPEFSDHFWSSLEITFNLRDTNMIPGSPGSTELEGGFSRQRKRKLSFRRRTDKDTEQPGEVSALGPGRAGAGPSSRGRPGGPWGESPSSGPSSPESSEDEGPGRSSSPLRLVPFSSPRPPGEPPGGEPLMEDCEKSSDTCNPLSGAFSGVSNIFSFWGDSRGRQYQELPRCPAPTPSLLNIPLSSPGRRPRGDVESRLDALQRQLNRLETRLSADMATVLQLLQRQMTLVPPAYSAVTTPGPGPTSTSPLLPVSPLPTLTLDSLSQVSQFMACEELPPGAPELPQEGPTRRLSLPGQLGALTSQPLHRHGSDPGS

COC(=O)N[C@H](C(=O)N1CCCC1c1ncc(C#CC#Cc2ccc(-c3cnc(C4CCCN4C(=O)[C@@H](NC(=O)OC)C(C)C)[nH]3)cc2)[nH]1)C(C)C.Cl (single isomer, unassigned; 13a)
bioavailability [1]: 58% | EC50 (Dengue virus): > 28.4 µM | logP [2]: 4.99 | CC50 [3]: 17.3 µM | solubility [4]: 208 µM | remaining at 1 h, 1 µM [5]: 84.7% | LD10 (Rattus norvegicus [6]): 234.2 mg/kg | LD50 [7]: 395 mg/kg | CC50 at 72 h [8]: 23.5 µM | half-life [9]: 3 h | Activity (Salmonella typhimurium [10]): Non-toxic | LD10 (Rattus norvegicus [11]): 228.4 mg/kg | LD50 [12]: 412 mg/kg | LD10 (Mus musculus [13]): 1160.1 mg/kg | LD16 (Mus musculus [13]): 1565.7 mg/kg | LD84 (Mus musculus [13]): 4445.3 mg/kg | LD50 [14]: 3010 mg/kg | EC50 (Hepatitis C virus [15]): 0.021 nM | solubility [16]: 2200 µM | EC50 (Hepatitis C virus [17]): 3.4 pM | EC50 (West Nile virus): > 26.3 µM | LD50 [18]: > 1600 mg/kg | Activity (Canis familiaris): Non-toxic | LD84 (Canis familiaris): 485.6 mg/kg | EC50 (Hepatitis C virus [19]): 0.051 nM | LD10 (Rattus norvegicus [20]): 228.6 mg/kg | LD50 [21]: 349 mg/kg | Activity (Rattus norvegicus [22]): Non-toxic | LD84 (Rattus norvegicus [22]): 651.3 mg/kg | LD10 (Mus musculus [23]): 2320.3 mg/kg | LD16 (Mus musculus [23]): 2565.4 mg/kg | LD84 (Mus musculus [23]): 4305.3 mg/kg | LD50 [24]: 3440 mg/kg | solubility [25]: ≥ 10 µM | IC50 (Cytochrome P450 2C9): > 10 µM | IC50 (Cytochrome P450 1A2): > 10 µM | logD [26]: 4.46 | Activity (Salmonella typhimurium [27]): Non-toxic | selectivity ratio [28]: > 5000 | Activity (Rattus norvegicus [29]): Non-toxic | CC50 at 72 h [30]: 26.3 µM | solubility [31]: ≥ 10 µM | EC50 (Hepatitis C virus [32]): 0.059 nM | half-life [33]: 4.5 h | EC50 (Yellow fever virus): > 23.5 µM | remaining at 1 h, 1 µM [34]: 81.5% | EC50 (Hepatitis C virus [35]): 6.5 pM | Activity [36]: < 10% | Activity (Salmonella typhimurium [37]): Non-toxic | bioavailability [38]: 65% | Activity (Rattus norvegicus [39]): Non-toxic | LD84 (Rattus norvegicus [39]): 593.2 mg/kg | IC50 (Cytochrome P450 2D6): > 10 µM | solubility [40]: 433 µM | half-life [41]: 4.9 h | Activity (Salmonella typhimurium [42]): Non-toxic | CC50 at 72 h [43]: 28.4 µM | remaining at 1 h, 1 µM [44]: 70.8% | IC50 (Cytochrome P450 2C19): > 10 µM | half-life [45]: 3.4 h | IC50 (Cytochrome P450 3A4): > 10 µM
